# Measurements published in publication PMC9681850, “Structural basis of synthetic agonist activation of the nuclear receptor REV-ERB” (Nature Communications, 2022).
# Values joined by “and” are separate entries in the source; they are usually repeats but may differ in a detail not shown here. Equal entries are not always repeated.
# Assays:
# [1] = system: HepG2 cells; test: cell viability by crystal violet staining; type: cell-based, human; details: for cell viability (Fig 2a source data): crystal violet, normalized to DMSO, single replicates
# Method: (§1) Cellular viability was tested in two cell types, human hepatocarcinoma HepG2 cells and proliferating C2C12 mouse myoblast cells.
# (§2) Data are presented as mean ± SEM. Source data are available as a Source Data file.
# (§3) The human hepatocellular carcinoma cell line, HepG2 cells (ATCC HB-8065), were cultured in 10% FBS 1% L-Glu MEM at 37 °C in a humidified atmosphere of 5% CO2. Prior to RNA extraction cells were treated with either DMSO or REV-ERB agonist for 24 h. The C2C12 proliferating mouse myoblast cells (ATCC, CRL-1772) were cultured in 10% FBS DMEM at 37 °C in a humidified atmosphere of 5% CO2. Prior to RNA extraction cells were treated with either DMSO or REV-ERB agonist for 24 h. […]
# (§4) […] Media was removed, and cells were incubated with 0.5% crystal violet solution for 20 min at room temperature with mild agitation. Cells were washed four times with tap water before being air drying overnight. Cells were incubated in methanol for 20 min with mild agitation. Absorbance was read at 570 nm, and readings were normalized to vehicle (DMSO) treated cells.
# [2] = system: proliferating C2C12 mouse myoblast cells; test: cell viability by crystal violet staining; type: cell-based; details: for cell viability (Fig. 2b source data): crystal violet, normalized to DMSO, single replicates; for reduction in cellular viability: proliferating C2C12 cells
# Method: as §1, §2, §3, §4
# [3] = system: BMAL1 in HepG2 cells; test: expression of BMAL1 by qPCR; type: cell-based, human; set-up: key: Bmal1 expression normalized to Ppia; details: 5 μM, 24 h, single replicates (n = 4)
# Excerpt: (§5) We next determined whether STL1267 can regulate characterized REV-ERB modulated genes in cell lines expressing REV-ERB naturally. Five micromolar doses of both drugs were used in cell-based experiments from this point on. REV-ERB is an established component of the core molecular clock repressing the expression of core clock gene Bmal1[6],[27] as well as others[28],[29]. […] In skeletal muscle, REV-ERB agonism increases the expression of a wide variety of genes important in mitochondrial function.
# (§6) The human hepatocellular carcinoma cell line, HepG2 cells (ATCC HB-8065), were cultured in 10% FBS 1% L-Glu MEM at 37 °C in a humidified atmosphere of 5% CO2. Prior to RNA extraction cells were treated with either DMSO or REV-ERB agonist for 24 h. The C2C12 proliferating mouse myoblast cells (ATCC, CRL-1772) were cultured in 10% FBS DMEM at 37 °C in a humidified atmosphere of 5% CO2. Prior to RNA extraction cells were treated with either DMSO or REV-ERB agonist for 24 h. Prior to crystal violet cytotoxicity assay, cells were treated with either DMSO or REV-ERB agonist for 48 h.
# Mouse tissue was homogenized using a bullet blender. DNA/protein was removed by phase separation using BCP/chloroform. The supernatant (RNA containing fraction) was collected, and RNA was precipitated using isopropanol. The RNA pellets were washed with 75% ethanol and resolubilized in RNAse free water. […]
# [4] = system: C2C12 cells; test: relative gene expression of REV-ERB responsive genes by qPCR; type: cell-based, mouse; details: C2C12, 5uM; single replicates; listed as SR1267
# Excerpt: as §5, §6
# Mouse tissue was homogenized using a bullet blender. DNA/protein was removed by phase separation using BCP/chloroform. The supernatant (RNA containing fraction) was collected, and RNA was precipitated using isopropanol. The RNA pellets were washed with 75% ethanol and resolubilized in RNAse free water. The purity of the RNA was tested by agarose gel prior to cDNA synthesis. Total RNA was harvested from HepG2 and C2C12 using the RNeasy mini kit according to manufacturer’s instructions (Qiagen).
# Isolated RNA was reverse transcribed into cDNA using the qScript^TMcDNA Synthesis kit according to the manufacturer’s instructions (QuantaBio). Quantative PCR (qPCR) was performed on a QuantStudio^TM 6 Flex or QuantStudio^TM 7 Flex (Life Technologies) using SYBR^TM Select Master Mix (Applied BioSystems) with select primers (Table S2). Gene expression was normalized to Ppia for all data sets. Oligonucleotide sequences are provided in Supplementary Table 2.
# [5] = biological target: CAR (Homo sapiens, UniProt Q14994); test: CAR assay; type: cell-based
# [6] = system: 43 targets (GPCRs, ion channels, transporters, and other drug targets); test: NIMH PDSP radioligand displacement panel; type: binding; details: of the 43 targets assessed
# Excerpt: We assessed the specificity of STL1267 using both in house nuclear receptor Gal4-NR reporter assays and the NIMH Psychoactive Drug Screening Program (PDSP) assays. We assessed the specificity of STL1267 in the PDSP’s radioligand displacement assays, screening for binding to off-target GPCRs, ion channels, transporters, and other drug targets (Table S1). Of the 43 targets assessed in this panel, we observed no detectable binding in 41 of them. […] Additional assessment in serotonin transporter and kappa opioid receptor activity in a functional assay may be warranted to determine absolute specificity. […]
# (§7) Receptor RLBA Ki Receptor activity
# (§8) Suppl ementary Tabl e 1. Speci fi ci ty of STL1267. […]
# [7] = biological target: T1, Alpha1B (Homo sapiens, UniProt P35368); test: PDSP radioligand binding assay; details: read-out: RLBA Ki
# T1 construct: NIMH Psychoactive Drug Screening Program (assay performed there)
# Excerpt: as §7, §8
# [8] = biological target: Beta2 (Homo sapiens, UniProt P07550); test: PDSP radioligand binding assay; details: read-out: RLBA Ki
# Excerpt: as §7, §8
# [9] = biological target: PBR (Rattus norvegicus, UniProt P16257); test: PDSP radioligand binding assay; details: read-out: RLBA Ki
# Excerpt: as §7, §8
# [10] = biological target: T2, REV-ERBα LBD (Homo sapiens, UniProt P20393); test: scintillation proximity radioligand binding assay with 3H-STL1267; set-up: made in house; details: SPA
# T2 sequence (P20393 284-614 limits assumed): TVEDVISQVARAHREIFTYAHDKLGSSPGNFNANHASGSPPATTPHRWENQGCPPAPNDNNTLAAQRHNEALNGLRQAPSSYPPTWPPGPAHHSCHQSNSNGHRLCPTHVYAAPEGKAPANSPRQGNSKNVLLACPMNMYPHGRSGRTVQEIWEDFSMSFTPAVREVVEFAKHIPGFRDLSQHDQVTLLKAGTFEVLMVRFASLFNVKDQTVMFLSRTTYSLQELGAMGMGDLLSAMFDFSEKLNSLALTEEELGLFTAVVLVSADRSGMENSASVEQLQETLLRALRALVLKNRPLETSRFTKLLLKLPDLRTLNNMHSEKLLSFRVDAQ
# T1 sequence (P35368 whole entry): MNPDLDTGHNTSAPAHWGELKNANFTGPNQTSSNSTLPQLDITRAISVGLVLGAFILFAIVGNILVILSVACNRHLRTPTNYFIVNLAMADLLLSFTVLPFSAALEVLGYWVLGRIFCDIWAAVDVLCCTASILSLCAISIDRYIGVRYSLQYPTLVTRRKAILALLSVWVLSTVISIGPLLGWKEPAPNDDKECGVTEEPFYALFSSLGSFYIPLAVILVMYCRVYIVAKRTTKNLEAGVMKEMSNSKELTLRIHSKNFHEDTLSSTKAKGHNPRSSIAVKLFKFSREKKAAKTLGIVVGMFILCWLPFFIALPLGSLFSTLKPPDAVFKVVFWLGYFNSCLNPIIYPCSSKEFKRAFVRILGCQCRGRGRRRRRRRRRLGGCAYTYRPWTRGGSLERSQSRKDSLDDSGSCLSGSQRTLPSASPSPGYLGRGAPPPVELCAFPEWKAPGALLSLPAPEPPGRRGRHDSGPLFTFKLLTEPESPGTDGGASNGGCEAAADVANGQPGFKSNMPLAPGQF
# Sequence of Beta2 (P07550 whole entry): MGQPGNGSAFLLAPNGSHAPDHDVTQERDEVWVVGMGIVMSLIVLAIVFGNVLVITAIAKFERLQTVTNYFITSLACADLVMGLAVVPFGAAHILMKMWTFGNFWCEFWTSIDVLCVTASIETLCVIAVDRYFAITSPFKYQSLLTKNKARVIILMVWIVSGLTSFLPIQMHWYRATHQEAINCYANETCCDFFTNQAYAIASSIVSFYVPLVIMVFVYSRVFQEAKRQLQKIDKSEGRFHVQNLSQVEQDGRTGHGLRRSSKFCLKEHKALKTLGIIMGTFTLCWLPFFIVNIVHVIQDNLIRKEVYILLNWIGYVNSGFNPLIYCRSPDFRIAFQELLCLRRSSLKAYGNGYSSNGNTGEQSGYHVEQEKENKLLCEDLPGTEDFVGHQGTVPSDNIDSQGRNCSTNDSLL
# Sequence of CAR (Q14994 whole entry): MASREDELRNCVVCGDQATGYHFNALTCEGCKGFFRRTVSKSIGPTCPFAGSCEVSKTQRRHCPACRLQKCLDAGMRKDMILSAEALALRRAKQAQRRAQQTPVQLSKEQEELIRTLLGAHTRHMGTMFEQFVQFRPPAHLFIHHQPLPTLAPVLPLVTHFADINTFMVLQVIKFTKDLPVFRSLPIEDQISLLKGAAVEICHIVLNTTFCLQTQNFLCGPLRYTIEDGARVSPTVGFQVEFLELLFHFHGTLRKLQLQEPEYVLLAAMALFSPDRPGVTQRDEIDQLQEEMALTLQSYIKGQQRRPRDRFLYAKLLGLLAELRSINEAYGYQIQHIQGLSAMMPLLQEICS
compound,measurement,setting,value
Clc1nnc2ccc(Oc3ccccc3-c3ccccc3)nn12 [STL1267],cell viability (Fig 2a source data),"[1]; HepG2, 1uM",100.259 and 103.289 and 114.098 and 100.562 and 101.976 and 107.785 and 108.29 and 110.916
same,cell viability (Fig 2a source data),"[1]; HepG2, 2uM",94.905 and 99.6528 and 117.735 and 107.532 and 113.391 and 106.219 and 106.421 and 103.794
same,cell viability (Fig 2a source data),"[1]; HepG2, 5uM",93.8443 and 82.581 and 107.936 and 102.38 and 83.3891 and 98.2385 and 86.8237 and 96.4202
same,cell viability (Fig 2a source data),"[1]; HepG2, 10uM",88.9955 and 75.7624 and 90.8643 and 100.208 and 77.7322 and 91.3189 and 89.0965 and 88.0359
same,cell viability (Fig 2a source data),"[1]; HepG2, 20uM",83.6922 and 74.4997 and 94.7535 and 87.2782 and 90.0057 and 93.8948 and 95.4101 and 87.8338
same,effect on cell viability,"[1]; HepG2 cells, up to the maximum dose examined (20 μM)",no adverse effects on cell viability
same,cell viability (Fig. 2b source data),"[2]; C2C12, 1 uM",92.0631 and 77.3068 and 87.5705 and 94.4131 and 98.2145 and 106.232 and 102.707
same,cell viability (Fig. 2b source data),"[2]; C2C12, 2 uM",85.9463 and 90.0242 and 93.8256 and 90.5771 and 97.5579 and 103.433 and 103.26 and 102.949
same,cell viability (Fig. 2b source data),"[2]; C2C12, 5 uM",92.9616 and 90.6808 and 91.0609 and 85.0824 and 101.498 and 105.679 and 104.435 and 94.6204
same,cell viability (Fig. 2b source data),"[2]; C2C12, 10 uM",88.9874 and 85.3588 and 77.2722 and 82.9397 and 90.0242 and 92.8925 and 94.5859 and 92.7197
same,cell viability (Fig. 2b source data),"[2]; C2C12, 20 uM",77.9634 and 78.8964 and 75.3024 and 82.4905 and 83.4236 and 81.9721 and 84.5985 and 90.5771
same,reduction in cellular viability,[2]; 10 μM,~ 10%
same,reduction in cellular viability,[2]; 20 μM,~ 20%
same,Bmal1 (Fig. 2c) expression,[3],attenuated the expression and 0.5800 and 0.6760 and 0.6148 and 0.7607
same,Ppargca1 relative gene expression,[4],8.425 and 7.081 and 5.71
same,lcad relative gene expression,[4],25.4657 and 24.2235 and 14.2579
same,lkb1 relative gene expression,[4],4.349 and 3.556 and 2.4615
same,mt-Nd1 relative gene expression,[4],3.873 and 3.557 and 4.501
same,mt-co1 relative gene expression,[4],7.748 and 5.296 and 5.742
same,nampt relative gene expression,[4],4.112 and 2.537 and 1.9657
same,scad relative gene expression,[4],25.4657 and 24.2235 and 14.2579
same,sirt1 relative gene expression,[4],4.33 and 3.474 and 1.956
same,vlcad relative gene expression,[4],14.2905 and 16.1127 and 7.599
same,activity at CAR,[5],did not have activity
same,number of targets with no detectable binding,[6],41
same,Ki,[7],> 10 µM
same,Ki,[8],> 10 µM
same,Ki,[9],> 10 µM
same,Ki,"[10]; REV-ERBα LBD, read-out: Ki, displacement of 3H-STL1267",0.16 µM
same,potency relative to SR9009 in the radioligand binding assay,[10],4.3 fold
